Experimental findings from the NIST ThermoML archive (doi:10.1016/j.jct.2006.10.006) are described below.

SMILES strings stand for the structures. ± gives the expanded uncertainty stated by the source.

The conditions of data set [1]: Crystal 1; DTA.
A short description of data set [2]: Molar enthalpy of transition or fusion. Particulars: Crystal; DSC.
The nature of data set [3]: molar enthalpy of vaporization or sublimation. The conditions noted are these: 298.15 K; Crystal; Static calorimetry.

As for `CCOC(=S)NC(=O)c1cccs1` [carbamothioic acid, N-(2-thienylcarbonyl)-, O-ethyl ester], the Triple point temperature in data set [1] is recorded as 345.9 ± 0.5 K. Also, in data set [2], the “Molar enthalpy of transition or fusion” value amounted to 5.23 ± 0.234 kcal/mol. Besides, the molar enthalpy in data set [3] was 34.2 ± 1.43 kcal/mol.
